Experimental data published in publication PMC6556873, “Rapid Covalent-Probe Discovery by Electrophile-Fragment Screening” (Journal of the American Chemical Society, 2019).
Read-outs that look alike come from different tables or passages of the source.

Assays:
[1] = target: T1, OTUB2 (OTUB2A) (Homo sapiens, UniProt Q96DC9); design: Intact protein LC/MS covalent labelling, fragments in pools of five, 200 uM each, 4 °C; details: 24 h, 4 °C, pool of five; 200 µM; covalent
T1 construct: full length residues 1-234, E. coli BL21(DE3)-R3, His tag removed by TEV, construct 27312 Da
T1 sequence (Q96DC9 1-234): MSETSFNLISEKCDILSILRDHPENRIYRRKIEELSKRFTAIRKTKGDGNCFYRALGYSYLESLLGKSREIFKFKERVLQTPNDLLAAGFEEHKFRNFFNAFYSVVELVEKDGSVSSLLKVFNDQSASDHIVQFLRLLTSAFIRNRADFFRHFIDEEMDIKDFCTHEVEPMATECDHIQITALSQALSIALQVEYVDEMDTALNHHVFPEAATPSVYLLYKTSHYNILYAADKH

[2] = target: T2, NUDT7 (Homo sapiens, UniProt P0C024); design: Intact protein LC/MS covalent labelling, fragments in pools of five, 200 uM each, 4 °C; details: 24 h, 4 °C, pool of five; 200 µM; covalent
T2 construct: residues 14-235, E. coli, pNIC28-Bsa4, N-terminal His6 tag removed by TEV, construct 26672 Da
T2 sequence (P0C024 14-235): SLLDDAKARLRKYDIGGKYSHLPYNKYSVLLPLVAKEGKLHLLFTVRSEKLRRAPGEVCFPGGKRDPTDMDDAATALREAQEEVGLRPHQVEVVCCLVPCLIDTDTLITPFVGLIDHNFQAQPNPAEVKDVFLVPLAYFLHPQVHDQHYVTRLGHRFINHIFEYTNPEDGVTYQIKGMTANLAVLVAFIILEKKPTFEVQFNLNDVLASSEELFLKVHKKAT

[3] = target: T3, NNMT (hNNMT) (Homo sapiens, UniProt P40261); design: Intact protein LC/MS covalent labelling, fragments in pools of five, 200 uM each, 4 °C; details: 24 h, 4 °C, pool of five; 200 µM; covalent
T3 construct: wild type, N-terminal His6 tag kept (no cleavage described), E. coli, construct 31248 Da
T3 sequence (P40261 1-264): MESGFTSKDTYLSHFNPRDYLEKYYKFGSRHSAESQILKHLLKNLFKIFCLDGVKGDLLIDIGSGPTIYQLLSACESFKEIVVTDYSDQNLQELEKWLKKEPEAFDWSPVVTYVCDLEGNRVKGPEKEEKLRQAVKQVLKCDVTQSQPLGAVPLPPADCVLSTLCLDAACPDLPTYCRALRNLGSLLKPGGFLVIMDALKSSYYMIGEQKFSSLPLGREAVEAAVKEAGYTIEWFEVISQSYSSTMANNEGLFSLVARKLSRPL

[4] = target: T4, PCAF (Homo sapiens, UniProt Q92831); design: Intact protein LC/MS covalent labelling, fragments in pools of five, 200 uM each, 4 °C; details: 24 h, 4 °C, pool of five; 200 µM; covalent
T4 construct: gene KAT2B
T4 sequence (Q92831 whole entry, the tested form may be a part): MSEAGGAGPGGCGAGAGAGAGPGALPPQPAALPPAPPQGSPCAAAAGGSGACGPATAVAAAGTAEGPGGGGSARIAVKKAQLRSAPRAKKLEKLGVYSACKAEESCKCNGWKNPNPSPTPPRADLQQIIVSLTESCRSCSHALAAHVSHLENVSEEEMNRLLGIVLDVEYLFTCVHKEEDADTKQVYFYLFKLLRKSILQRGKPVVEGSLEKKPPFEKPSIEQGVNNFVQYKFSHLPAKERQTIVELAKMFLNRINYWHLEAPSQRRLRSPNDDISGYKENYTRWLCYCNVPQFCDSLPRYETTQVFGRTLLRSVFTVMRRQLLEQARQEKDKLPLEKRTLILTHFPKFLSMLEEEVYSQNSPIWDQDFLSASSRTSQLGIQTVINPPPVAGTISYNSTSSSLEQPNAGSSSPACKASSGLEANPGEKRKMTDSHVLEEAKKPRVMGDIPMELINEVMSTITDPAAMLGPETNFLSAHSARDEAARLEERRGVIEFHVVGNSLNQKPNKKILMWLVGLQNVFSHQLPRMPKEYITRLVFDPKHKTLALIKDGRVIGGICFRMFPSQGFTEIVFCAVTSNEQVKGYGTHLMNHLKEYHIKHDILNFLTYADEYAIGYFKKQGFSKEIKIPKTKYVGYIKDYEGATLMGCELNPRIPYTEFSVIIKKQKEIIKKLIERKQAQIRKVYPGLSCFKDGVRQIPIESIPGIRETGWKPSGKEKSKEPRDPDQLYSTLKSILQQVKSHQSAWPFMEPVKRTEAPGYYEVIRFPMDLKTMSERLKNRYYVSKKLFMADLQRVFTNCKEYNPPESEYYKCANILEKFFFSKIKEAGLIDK

[5] = target: T5, BSA (Bos taurus, UniProt P02769); design: Intact protein LC/MS covalent labelling, fragments in pools of five, 200 uM each, 4 °C; details: 24 h, 4 °C, pool of five; 200 µM; covalent
T5 construct: gene ALB
T5 sequence (P02769 whole entry, the tested form may be a part): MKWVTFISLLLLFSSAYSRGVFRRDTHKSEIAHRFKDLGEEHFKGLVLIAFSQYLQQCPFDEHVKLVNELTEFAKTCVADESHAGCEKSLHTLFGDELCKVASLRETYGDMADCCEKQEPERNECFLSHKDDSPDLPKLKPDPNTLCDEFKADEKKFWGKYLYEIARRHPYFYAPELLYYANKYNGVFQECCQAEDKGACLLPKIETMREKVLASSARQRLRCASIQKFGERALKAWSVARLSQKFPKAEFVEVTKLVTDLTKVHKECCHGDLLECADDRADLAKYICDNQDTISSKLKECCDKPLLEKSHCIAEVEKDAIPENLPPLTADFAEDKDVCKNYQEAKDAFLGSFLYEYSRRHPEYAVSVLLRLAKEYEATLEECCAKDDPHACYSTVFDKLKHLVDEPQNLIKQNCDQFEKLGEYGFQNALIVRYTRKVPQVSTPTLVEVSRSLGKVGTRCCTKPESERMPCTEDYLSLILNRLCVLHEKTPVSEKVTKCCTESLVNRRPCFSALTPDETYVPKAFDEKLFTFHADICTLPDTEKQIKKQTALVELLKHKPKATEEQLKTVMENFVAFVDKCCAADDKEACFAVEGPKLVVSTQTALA

[6] = in vitro; design: species or system CCD841, HEK293; details: human, hb2 cells, read-out: HB-2 Cells Viability (%)
[7] = in vitro; design: species or system HB2, CCD841; details: human, hek293 cells
[8] = in vitro; design: species or system HB2, HEK293; details: human, ccd841 cells

| Compound | OTUB2 [1] | NUDT7 [2] | NNMT [3] | PCAF [4] | BSA [5] | viability at 48 h, 10 µM [6] | viability at 48 h, 10 µM [7] | viability at 48 h, 10 µM [8] |
| --- | --- | --- | --- | --- | --- | --- | --- | --- |
| Cc1cc(CNC(=O)CCl)cc(C)c1O [PCM-0102431] | 0.64 | 0 | 0 | 0 | 0 | 85.7% | 84.6% | 96.3% |
| NC(=O)c1ccsc1NC(=O)CCl [PCM-0102314] | 0 | 0.18 | 0.32 | 0 | 0 | 58.5% | 33.7% | 74.4% |
| O=C(CCl)NC1CCN(C(=O)C2CCCCC2)CC1 [PCM-0102931] | 0.09 | 0 | 0 | 0 | 0 | 82.9% | 118% | 78.6% |
| O=C(CCl)NCc1cccc(F)c1 [PCM-0103047] | 0.43 | 0 | 0 | 0 | 0 | 83.7% | 88.1% | 69.7% |
| O=C(CCl)Nc1ccccc1N1CCOCC1 [PCM-0102416] | 0 | 0 | 0 | 0 | 0 | 99.5% | 113% | 90.7% |
| CC(C)(C)c1nnc(NC(=O)CCl)s1 [PCM-0102736] | 0 | 0 | 0.13 | 0 | 0 | 80.1% | 81.5% | 67.5% |
| C=CC(=O)N1CCC2C(CCCN2Cc2ccccc2)C1 (centres unmarked) [PCM-0102673] | 0 | 0 | 0 | 0 | 0 | 102% | 85% | 116% |
| CCc1cccc(C)c1NC(=O)CCl [PCM-0102618] | 0 | 0.11 | 0 | 0 | 0 | 98.3% | 101% | 106% |
| CN(Cc1cc(Br)cs1)C(=O)CCl [PCM-0103081] | 0 | 0 | 0 | 0 | 0 | 5.1% | 11.9% | 45.5% |
| O=C(CCl)NC12CC3CC(CC(C3)C1)C2 [PCM-0102118] | 0 | 0 | 0.23 | 0 | 0 | 83% | 71.1% | 76.1% |
| C=CC(=O)NC(=O)Nc1ccccc1 [PCM-0102883] | 0 | 0 | 0 | 0 | 0 | 5.4% | 4% | 17.8% |
| C=CC(=O)N1CCC2(CC1)CCS(=O)(=O)CC2 [PCM-0102559] | 0 | 0 | 0 | 0 | 0.12 | 105% | 113% | 113% |
| CC1CCC2(CC1)NC(=O)N(NC(=O)CCl)C2=O (centres unmarked) [PCM-0102666] | 0 | 0 | 0 | 0 | 0 | 97.3% | 99.9% | 79.9% |
| O=C(CCl)Nc1ccccc1Cl [PCM-0102152] | 0.2 | 0 | 0 | 0 | 0 | 75.4% | 76.1% | 78.5% |
| CS(=O)(=O)c1cccc(NC(=O)CCl)c1 [PCM-0102407] | 0.33 | 0 | 0 | 0 | 0 | 26.4% | 1.4% | 47% |
| Cc1ccccc1CN(C)C(=O)CCl [PCM-0102707] | 0 | 0.13 | 0.13 | 0 | 0 | 7.9% | 11.6% | 57% |
| COc1ccc(NC(=O)CCl)cc1Cl [PCM-0102652] | 0.24 | 0.12 | 0.83 | 0 | 0 | 10% | 2.6% | 29.3% |
| C=CC(=O)N1CCCc2c([nH]c3c(F)cccc23)C1 [PCM-0102767] | 0 | 0 | 0 | 0 | 0.1 | 89.2% | 96% | 96.6% |
| C=CC(=O)N1CCn2nc(C)nc2C1 [PCM-0102605] | 0 | 0 | 0 | 0 | 0 | 102% | 88.4% | 104% |
| O=C(CCl)Nc1cccc(N2CCCC2=O)c1 [PCM-0102179] | 0.47 | 0.12 | 0.23 | 0 | 0 | 20.8% | 1.8% | 52.4% |
| C=CC(=O)N1CCCC1C1COCCC1(C)O (centres unmarked) [PCM-0102571] | 0 | 0 | 0 | 0 | 0 | 107% | 104% | 107% |
| CC(=O)c1ccccc1NC(=O)CCl [PCM-0102282] | 0 | 0 | 0.19 | 0 | 0 | 102% | 87.2% | 90.3% |
| C=CC(=O)N1CCC(C(=O)Nc2cc(C)on2)CC1 [PCM-0102477] | 0 | 0 | 0 | 0 | 0 | 99.4% | 86.9% | 115% |
| CCc1sc(C(=O)NNC(=O)CCl)cc1C [PCM-0103009] | 1 | 0 | 0 | 0 | 0 | 70.4% | 73.2% | 68.3% |
| Cc1nc(C2(NC(=O)CCl)CCCCCC2)no1 [PCM-0102944] | 0 | 0 | 0 | 0 | 0 | 103% | 129% | 113% |
